Measured values published in US11993576B2, “N-benzyl-N-arylsulfonamide derivative and preparation and use thereof” (Hangzhou Yirui Pharmaceutical Technology Co., Ltd, priority 2019, dated 2024).

Legend:
[1] = biological target: human Kv1.3 (Homo sapiens, UniProt P22001); test: IonWorks automated patch clamp assay of inhibitory activity against Kv1.3; type: cell-based; conditions: automated patch clamp method; CHO-K1 cells stably expressing human Kv1.3
In short: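 CHO-K1 cells stably expressing human Kv1.3, perforated-patch IonWorks Quattro (amphotericin B 200 μg/mL internal), external solution pH 7.3. Compounds 0.00384-30 μM final, 0.3% DMSO, 600 s incubation; four 1 s pulses to 0 mV from −80 mV. Inhibition from peak current ratio after/before compound.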

[2] = biological target: human Kv1.5 (Homo sapiens, UniProt P22460); test: Conventional patch clamp assay of inhibitory activity against Kv1.5; type: cell-based; conditions: conventional patch-clamp method; CHO-K1 cells stably expressing human Kv1.5
Chain of human Kv1.5 (P22460 whole entry): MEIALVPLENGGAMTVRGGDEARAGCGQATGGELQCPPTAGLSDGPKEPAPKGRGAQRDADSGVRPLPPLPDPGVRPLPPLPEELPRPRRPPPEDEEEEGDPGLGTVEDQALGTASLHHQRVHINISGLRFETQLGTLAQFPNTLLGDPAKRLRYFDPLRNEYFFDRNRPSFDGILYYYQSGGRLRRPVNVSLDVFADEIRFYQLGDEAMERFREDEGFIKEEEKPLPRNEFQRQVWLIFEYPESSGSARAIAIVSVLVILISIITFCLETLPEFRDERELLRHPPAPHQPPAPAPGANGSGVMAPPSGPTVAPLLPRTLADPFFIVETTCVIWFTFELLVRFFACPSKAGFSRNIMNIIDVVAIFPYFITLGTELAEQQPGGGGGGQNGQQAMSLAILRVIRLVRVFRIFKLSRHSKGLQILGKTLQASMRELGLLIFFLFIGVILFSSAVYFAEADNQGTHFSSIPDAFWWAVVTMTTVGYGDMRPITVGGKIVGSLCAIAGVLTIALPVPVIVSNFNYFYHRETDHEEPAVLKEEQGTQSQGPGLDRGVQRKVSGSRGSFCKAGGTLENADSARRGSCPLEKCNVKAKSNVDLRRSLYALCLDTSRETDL
Procedure: III. Conventional Patch Clamp Assay of Inhibitory Activity Against Kv1.5
The principle and method for the conventional patch clamp method can be found in Grissmer et al. [Grissmer et al. Molecular Pharmacology 1994, 45:1227-1234].
Inhibitory activity of a compounds against Kv1.5 was assessed using a CHO-K1 recombinant cell line stably expressing human Kv1.5 (Charles River, Calif.). The cells were cultured in an F-12K culture medium containing 5% calf serum (Invitrogen, Carlsbad.ca) in an incubator at 37° C. and under air humidity with 6% CO2.
During the experiment, adherent cells were placed in a recording chamber under an inverted microscope. All the experiments were performed at room temperature. Each of the cells used itself as the control.
The test compounds were formulated to their final concentrations on the day of assay, and then dissolved in an extracellular fluid. The extracellular fluid (mM) was: NaCl, 137; KCl, 4; CaCl2, 1.8; MgCl2, 1; HEPES, 10; glucose 10; pH 7.4 (NaOH titration). All the solutions of the test compounds and the control compounds contained 0.3% of DMSO.
Each of the compounds was perfused by a gravity-driven perfusion system. At least two cells were tested for each of the concentrations of a compound. After the current was stable, the blocking effect of the compounds was calculated by comparing the change in the current before and after administration of the compounds.
1000 μM 4-AP was used as a positive control.
The cells were transferred to a perfusion chamber, and were perfused with the extracellular fluid. Intracellular fluid (mM): K-aspartate, 130; MgCl2, 5; EGTA 5; HEPES, 10; pH 7.2 (KOH titration). The intracellular fluid was stored in a small amount in a refrigerator at −80° C. in batches, and was thawed on the day of the experiment. The electrodes were drawn by PC-10 (Narishige, Japan). A whole-cell patch-clamp recording was performed, with the noise being filtered by one-fifth of the sampling frequency.
The cells were clamped at −80 mV and then depolarized to 20 mV with square waves lasting for 2 seconds to obtain a Kv1.5 current. This process was repeated every 20 seconds. The maximum current elicited by the square waves was detected. After the maximum current became stable, the test compounds were perfused. After the reaction was stable, the blocking strength was calculated.
Data was collected and analyzed using pCLAMP 10 (Molecular Devices, Union City, CA). A stable current meant a current which varies within a limited range over time. The value of the stable current was used to calculate the effect of a compound at this […].

Chain of human Kv1.3 (P22001 whole entry): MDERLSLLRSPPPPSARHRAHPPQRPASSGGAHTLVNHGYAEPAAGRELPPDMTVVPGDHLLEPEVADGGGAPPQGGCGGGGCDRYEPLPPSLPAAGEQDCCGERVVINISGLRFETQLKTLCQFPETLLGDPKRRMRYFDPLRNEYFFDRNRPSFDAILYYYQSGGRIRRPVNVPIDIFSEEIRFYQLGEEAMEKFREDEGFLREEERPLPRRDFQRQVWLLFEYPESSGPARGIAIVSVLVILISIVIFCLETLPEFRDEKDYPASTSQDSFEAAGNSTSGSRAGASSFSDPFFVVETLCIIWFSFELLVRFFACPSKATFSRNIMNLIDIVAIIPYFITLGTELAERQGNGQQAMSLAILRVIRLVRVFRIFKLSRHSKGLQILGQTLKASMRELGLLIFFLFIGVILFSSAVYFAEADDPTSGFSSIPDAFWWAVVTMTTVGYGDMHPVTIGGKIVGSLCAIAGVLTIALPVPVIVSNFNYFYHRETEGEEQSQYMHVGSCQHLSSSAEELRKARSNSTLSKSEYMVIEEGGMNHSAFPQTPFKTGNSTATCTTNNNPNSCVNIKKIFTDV

IC50 [1]: 92 nM
IC50 [2]: 3650 nM
SMILES: CC(C)CS(=O)(=O)N(Cc1ccc(F)cc1)c1ccc(N2CCN(C(=O)N(C)C)CC2)c(C#N)c1 [Compound 37, 4-(2-cyano-4-((N-(4-fluorobenzyl)-2-methylpropyl)sulfonamido)phenyl)-N,N-dimethylpiperazin-1-formamide]
